Where “and” joins values, the source holds several entries; their conditions need not be identical. Identical values can stand only once. ± gives the expanded uncertainty stated by the source.
Experiment: molar heat capacity at constant pressure
Details: 101.33 kPa, Crystal, Small (less than 1 g) adiabatic calorimetry

Which results are given for `O.O.O.O.O.O=S(=O)([O-])[O-].[Cu+2]` [copper(II) sulfate pentahydrate]?
molar heat capacity at constant pressure (4.261 K): 0.5156 ± 0.024 J/K/mol; molar heat capacity at constant pressure (4.305 K): 0.5483 ± 0.025 J/K/mol; molar heat capacity at constant pressure (4.311 K): 0.5046 ± 0.024 J/K/mol; molar heat capacity at constant pressure (4.335 K): 0.5159 ± 0.026 J/K/mol; molar heat capacity at constant pressure (4.395 K): 0.5368 ± 0.025 J/K/mol; molar heat capacity at constant pressure (4.524 K): 0.5196 ± 0.024 J/K/mol; molar heat capacity at constant pressure (4.539 K): 0.5173 ± 0.024 J/K/mol; molar heat capacity at constant pressure (4.569 K): 0.4829 ± 0.025 J/K/mol; molar heat capacity at constant pressure (4.583 K): 0.5241 ± 0.024 J/K/mol; molar heat capacity at constant pressure (4.777 K): 0.4969 ± 0.023 J/K/mol; molar heat capacity at constant pressure (4.798 K): 0.4984 ± 0.023 J/K/mol; molar heat capacity at constant pressure (4.823 K): 0.4929 ± 0.023 J/K/mol; molar heat capacity at constant pressure (4.824 K): 0.4432 ± 0.024 J/K/mol; molar heat capacity at constant pressure (4.978 K): 0.5029 ± 0.023 J/K/mol; molar heat capacity at constant pressure (5 K): 0.4962 ± 0.024 J/K/mol; molar heat capacity at constant pressure (5.069 K): 0.4964 ± 0.023 J/K/mol; molar heat capacity at constant pressure (5.082 K): 0.4427 ± 0.023 J/K/mol; molar heat capacity at constant pressure (5.104 K): 0.4944 ± 0.023 J/K/mol; molar heat capacity at constant pressure (5.177 K): 0.4896 ± 0.023 J/K/mol; molar heat capacity at constant pressure (5.342 K): 0.4946 ± 0.023 J/K/mol; molar heat capacity at constant pressure (5.372 K): 0.4889 ± 0.023 J/K/mol; molar heat capacity at constant pressure (5.378 K): 0.4929 ± 0.023 J/K/mol; molar heat capacity at constant pressure (5.56 K): 0.4939 ± 0.023 J/K/mol; molar heat capacity at constant pressure (5.621 K): 0.4969 ± 0.023 J/K/mol; molar heat capacity at constant pressure (5.651 K): 0.4969 ± 0.023 J/K/mol; molar heat capacity at constant pressure (5.749 K): 0.4906 ± 0.022 J/K/mol; molar heat capacity at constant pressure (5.9 K): 0.5111 ± 0.023 J/K/mol; molar heat capacity at constant pressure (5.914 K): 0.4479 ± 0.023 J/K/mol; molar heat capacity at constant pressure (5.925 K): 0.5016 ± 0.023 J/K/mol; molar heat capacity at constant pressure (5.937 K): 0.4989 ± 0.023 J/K/mol; molar heat capacity at constant pressure (6.172 K): 0.5019 ± 0.022 J/K/mol; molar heat capacity at constant pressure (6.291 K): 0.5248 ± 0.023 J/K/mol; molar heat capacity at constant pressure (6.303 K): 0.5186 ± 0.023 J/K/mol and 0.4587 ± 0.023 J/K/mol; molar heat capacity at constant pressure (6.448 K): 0.5358 ± 0.023 J/K/mol; molar heat capacity at constant pressure (6.726 K): 0.5553 ± 0.023 J/K/mol; molar heat capacity at constant pressure (6.774 K): 0.5665 ± 0.023 J/K/mol; molar heat capacity at constant pressure (6.778 K): 0.5585 ± 0.023 J/K/mol; molar heat capacity at constant pressure (6.783 K): 0.4881 ± 0.023 J/K/mol; molar heat capacity at constant pressure (7.002 K): 0.5855 ± 0.024 J/K/mol; molar heat capacity at constant pressure (7.249 K): 0.6135 ± 0.024 J/K/mol; molar heat capacity at constant pressure (7.254 K): 0.6117 ± 0.024 J/K/mol; molar heat capacity at constant pressure (7.273 K): 0.6282 ± 0.024 J/K/mol; molar heat capacity at constant pressure (7.547 K): 0.6634 ± 0.025 J/K/mol; molar heat capacity at constant pressure (7.713 K): 0.7001 ± 0.025 J/K/mol; molar heat capacity at constant pressure (7.723 K): 0.6939 ± 0.025 J/K/mol; molar heat capacity at constant pressure (7.725 K): 0.6355 ± 0.026 J/K/mol; molar heat capacity at constant pressure (7.824 K): 0.7166 ± 0.026 J/K/mol; molar heat capacity at constant pressure (8.096 K): 0.7788 ± 0.027 J/K/mol; molar heat capacity at constant pressure (8.182 K): 0.7853 ± 0.027 J/K/mol; molar heat capacity at constant pressure (8.189 K): 0.786 ± 0.027 J/K/mol; molar heat capacity at constant pressure (8.19 K): 0.7356 ± 0.028 J/K/mol; molar heat capacity at constant pressure (8.371 K): 0.8474 ± 0.028 J/K/mol; molar heat capacity at constant pressure (8.632 K): 0.9011 ± 0.029 J/K/mol; molar heat capacity at constant pressure (8.65 K): 0.9014 ± 0.029 J/K/mol and 0.8412 ± 0.03 J/K/mol; molar heat capacity at constant pressure (8.653 K): 0.8934 ± 0.028 J/K/mol; molar heat capacity at constant pressure (8.928 K): 0.968 ± 0.03 J/K/mol; molar heat capacity at constant pressure (9.09 K): 1.043 ± 0.031 J/K/mol; molar heat capacity at constant pressure (9.107 K): 0.9518 ± 0.032 J/K/mol; molar heat capacity at constant pressure (9.116 K): 1.028 ± 0.03 J/K/mol; molar heat capacity at constant pressure (9.204 K): 1.057 ± 0.031 J/K/mol; molar heat capacity at constant pressure (9.48 K): 1.134 ± 0.032 J/K/mol; molar heat capacity at constant pressure (9.555 K): 1.149 ± 0.032 J/K/mol; molar heat capacity at constant pressure (9.563 K): 1.103 ± 0.035 J/K/mol; molar heat capacity at constant pressure (9.583 K): 1.165 ± 0.033 J/K/mol; molar heat capacity at constant pressure (9.756 K): 1.2 ± 0.033 J/K/mol; molar heat capacity at constant pressure (10 K): 1.299 ± 0.035 J/K/mol; molar heat capacity at constant pressure (10.02 K): 1.297 ± 0.034 J/K/mol and 1.25 ± 0.038 J/K/mol; molar heat capacity at constant pressure (10.03 K): 1.306 ± 0.035 J/K/mol; molar heat capacity at constant pressure (10.05 K): 1.315 ± 0.035 J/K/mol; molar heat capacity at constant pressure (10.4 K): 1.456 ± 0.037 J/K/mol; molar heat capacity at constant pressure (10.7 K): 1.569 ± 0.039 J/K/mol; molar heat capacity at constant pressure (10.71 K): 1.536 ± 0.043 J/K/mol; molar heat capacity at constant pressure (10.77 K): 1.6 ± 0.039 J/K/mol; molar heat capacity at constant pressure (10.86 K): 1.634 ± 0.039 J/K/mol; molar heat capacity at constant pressure (11.32 K): 1.835 ± 0.042 J/K/mol; molar heat capacity at constant pressure (11.62 K): 1.99 ± 0.044 J/K/mol; molar heat capacity at constant pressure (11.63 K): 1.944 ± 0.051 J/K/mol; molar heat capacity at constant pressure (11.7 K): 2.014 ± 0.045 J/K/mol; molar heat capacity at constant pressure (11.78 K): 2.059 ± 0.045 J/K/mol; molar heat capacity at constant pressure (12.24 K): 2.283 ± 0.048 J/K/mol; molar heat capacity at constant pressure (12.54 K): 2.453 ± 0.05 J/K/mol; molar heat capacity at constant pressure (12.55 K): 2.432 ± 0.059 J/K/mol; molar heat capacity at constant pressure (12.62 K): 2.5 ± 0.051 J/K/mol; molar heat capacity at constant pressure (12.7 K): 2.533 ± 0.052 J/K/mol; molar heat capacity at constant pressure (13.16 K): 2.801 ± 0.055 J/K/mol; molar heat capacity at constant pressure (13.47 K): 3.01 ± 0.058 J/K/mol and 3.006 ± 0.069 J/K/mol; molar heat capacity at constant pressure (13.55 K): 3.048 ± 0.058 J/K/mol; molar heat capacity at constant pressure (13.62 K): 3.099 ± 0.059 J/K/mol; molar heat capacity at constant pressure (14.09 K): 3.404 ± 0.063 J/K/mol; molar heat capacity at constant pressure (14.24 K): 3.51 ± 0.064 J/K/mol; molar heat capacity at constant pressure (14.39 K): 3.63 ± 0.065 J/K/mol; molar heat capacity at constant pressure (14.4 K): 3.652 ± 0.079 J/K/mol; molar heat capacity at constant pressure (14.48 K): 3.676 ± 0.066 J/K/mol; molar heat capacity at constant pressure (14.55 K): 3.735 ± 0.066 J/K/mol; molar heat capacity at constant pressure (15 K): 4.062 ± 0.07 J/K/mol; molar heat capacity at constant pressure (15.33 K): 4.33 ± 0.073 J/K/mol and 4.316 ± 0.073 J/K/mol and 4.374 ± 0.09 J/K/mol; molar heat capacity at constant pressure (16.27 K): 5.102 ± 0.082 J/K/mol and 5.148 ± 0.1 J/K/mol; molar heat capacity at constant pressure (16.34 K): 5.147 ± 0.082 J/K/mol; molar heat capacity at constant pressure (17.21 K): 5.92 ± 0.09 J/K/mol; molar heat capacity at constant pressure (17.22 K): 5.985 ± 0.11 J/K/mol; molar heat capacity at constant pressure (17.34 K): 6.038 ± 0.091 J/K/mol; molar heat capacity at constant pressure (18.16 K): 6.788 ± 0.099 J/K/mol; molar heat capacity at constant pressure (18.17 K): 6.865 ± 0.13 J/K/mol; molar heat capacity at constant pressure (18.34 K): 6.974 ± 0.1 J/K/mol; molar heat capacity at constant pressure (19.12 K): 7.738 ± 0.11 J/K/mol and 7.803 ± 0.14 J/K/mol; molar heat capacity at constant pressure (19.34 K): 7.95 ± 0.11 J/K/mol; molar heat capacity at constant pressure (20 K): 8.662 ± 0.12 J/K/mol; molar heat capacity at constant pressure (20.07 K): 8.711 ± 0.12 J/K/mol; molar heat capacity at constant pressure (20.08 K): 8.781 ± 0.15 J/K/mol; molar heat capacity at constant pressure (20.34 K): 8.968 ± 0.12 J/K/mol; molar heat capacity at constant pressure (21.52 K): 10.37 ± 0.13 J/K/mol and 10.5 ± 0.17 J/K/mol; molar heat capacity at constant pressure (21.84 K): 10.73 ± 0.13 J/K/mol; molar heat capacity at constant pressure (22.86 K): 11.97 ± 0.14 J/K/mol; molar heat capacity at constant pressure (23.43 K): 12.81 ± 0.2 J/K/mol; molar heat capacity at constant pressure (23.44 K): 12.67 ± 0.15 J/K/mol; molar heat capacity at constant pressure (23.8 K): 13.12 ± 0.15 J/K/mol; molar heat capacity at constant pressure (23.86 K): 13.21 ± 0.15 J/K/mol; molar heat capacity at constant pressure (24.84 K): 14.42 ± 0.16 J/K/mol; molar heat capacity at constant pressure (25 K): 14.64 ± 0.16 J/K/mol; molar heat capacity at constant pressure (25.35 K): 15.41 ± 0.22 J/K/mol; molar heat capacity at constant pressure (25.49 K): 15.25 ± 0.16 J/K/mol; molar heat capacity at constant pressure (25.75 K): 15.84 ± 0.17 J/K/mol; molar heat capacity at constant pressure (25.81 K): 15.7 ± 0.17 J/K/mol; molar heat capacity at constant pressure (26.5 K): 16.59 ± 0.17 J/K/mol; molar heat capacity at constant pressure (26.79 K): 16.97 ± 0.17 J/K/mol; molar heat capacity at constant pressure (27.28 K): 18.19 ± 0.25 J/K/mol; molar heat capacity at constant pressure (27.48 K): 17.9 ± 0.18 J/K/mol; molar heat capacity at constant pressure (27.72 K): 18.24 ± 0.18 J/K/mol; molar heat capacity at constant pressure (27.77 K): 18.33 ± 0.18 J/K/mol; molar heat capacity at constant pressure (28.45 K): 19.31 ± 0.18 J/K/mol; molar heat capacity at constant pressure (28.75 K): 19.73 ± 0.19 J/K/mol; molar heat capacity at constant pressure (29.23 K): 20.9 ± 0.27 J/K/mol; molar heat capacity at constant pressure (29.43 K): 20.68 ± 0.19 J/K/mol; molar heat capacity at constant pressure (29.7 K): 21.26 ± 0.19 J/K/mol; molar heat capacity at constant pressure (29.73 K): 21.15 ± 0.19 J/K/mol; molar heat capacity at constant pressure (30 K): 21.51 ± 0.2 J/K/mol; molar heat capacity at constant pressure (30.41 K): 22.11 ± 0.21 J/K/mol; molar heat capacity at constant pressure (30.7 K): 22.53 ± 0.21 J/K/mol; molar heat capacity at constant pressure (31.22 K): 23.13 ± 0.29 J/K/mol; molar heat capacity at constant pressure (31.39 K): 23.59 ± 0.21 J/K/mol; molar heat capacity at constant pressure (31.68 K): 24.03 ± 0.22 J/K/mol and 23.15 ± 0.21 J/K/mol; molar heat capacity at constant pressure (32.37 K): 25.14 ± 0.22 J/K/mol; molar heat capacity at constant pressure (32.66 K): 25.56 ± 0.22 J/K/mol; molar heat capacity at constant pressure (33.19 K): 26.4 ± 0.32 J/K/mol; molar heat capacity at constant pressure (33.35 K): 26.55 ± 0.23 J/K/mol; molar heat capacity at constant pressure (33.65 K): 27.01 ± 0.23 J/K/mol; molar heat capacity at constant pressure (33.66 K): 26.86 ± 0.23 J/K/mol; molar heat capacity at constant pressure (34.34 K): 28.1 ± 0.24 J/K/mol; molar heat capacity at constant pressure (34.62 K): 28.57 ± 0.24 J/K/mol; molar heat capacity at constant pressure (35 K): 29.13 ± 0.25 J/K/mol; molar heat capacity at constant pressure (35.15 K): 29.64 ± 0.34 J/K/mol; molar heat capacity at constant pressure (35.31 K): 29.65 ± 0.24 J/K/mol; molar heat capacity at constant pressure (35.61 K): 30.07 ± 0.25 J/K/mol; molar heat capacity at constant pressure (35.64 K): 30.19 ± 0.25 J/K/mol; molar heat capacity at constant pressure (36.17 K): 31.27 ± 0.35 J/K/mol; molar heat capacity at constant pressure (36.26 K): 31.26 ± 0.25 J/K/mol; molar heat capacity at constant pressure (36.29 K): 31.18 ± 0.25 J/K/mol; molar heat capacity at constant pressure (36.59 K): 31.76 ± 0.25 J/K/mol

Source: the NIST ThermoML archive (doi:10.1016/j.jct.2017.03.026)
